Data as given in the OPERA property sets (Mansouri et al. 2018).
Converted amounts (≈) assume the structure as drawn.

Compound	solubility (25 °C)	further results
Nc1ncnc2[nH]cnc12	7.62 mM (≈ 1030 µg/mL)	–
COP(=S)(Oc1cc(Cl)c(Br)cc1Cl)c1ccccc1 (stereo unspecified)	–	solubility (24 °C): 7.28e-05 mM (≈ 0.03 µg/mL)
c1cc2ccc3ccc4ccc5cccc6c(c1)c2c3c4c56	9.41e-07 mM (≈ 0.00026 µg/mL)	–
CCC1NC(=O)c2cc(S(N)(=O)=O)c(Cl)cc2N1 (stereo unspecified)	0.518 mM (≈ 150 µg/mL)	–
CCC(C)(C)CO	74.4 mM (≈ 7600 µg/mL)	–
OCc1ccccc1O	–	solubility (22 °C): 507 mM (≈ 63000 µg/mL)
CCC(C)(C)c1ccccc1	0.0708 mM (≈ 10.5 µg/mL)	–
c1ccc2c(c1)cnc1ccccc12	–	solubility (20 °C): 1.67 mM (≈ 300 µg/mL)
Cc1ccccc1N1C(=O)c2cc(S(N)(=O)=O)c(Cl)cc2NC1C (stereo unspecified)	0.165 mM (≈ 60.3 µg/mL)	–
Cn1c(=O)[nH]c2[nH]c(=O)[nH]c2c1=O	–	solubility: 27.5 mM (≈ 5000 µg/mL)
CCC1CCCCC1	–	solubility (20 °C): 0.0561 mM (≈ 6.3 µg/mL)
CCOP(=O)(OCC)SCC(=O)NC(C)(C)C#N	–	solubility (20 °C): 238 mM (≈ 70000 µg/mL)
O=C(O)c1ccsc1	33.6 mM (≈ 4300 µg/mL)	–
CC1CCC(C)O1 (stereo unspecified)	–	solubility: 1180 mM (≈ 118000 µg/mL)
Nc1ccc(C(=O)O)c(O)c1	–	solubility (23 °C): 11 mM (≈ 1690 µg/mL)
O=C1C(Cl)=C(Cl)C(=O)C(Cl)=C1Cl	1.02 mM (≈ 250 µg/mL)	–
CC1=C2[C@H]3OC(=O)[C@@H](C)[C@@H]3CC[C@@]2(C)C=CC1=O	–	solubility: 0.812 mM (≈ 200 µg/mL)
COC(=O)NS(=O)(=O)c1ccc(N)cc1	–	solubility (22 °C): 21.7 mM (≈ 5000 µg/mL)
CC(C)CCOC(=O)c1ccccc1O	0.696 mM (≈ 145 µg/mL)	–
ClCCCCCl	–	solubility: 120 mM (≈ 15300 µg/mL)
O=C(O)c1cccc(O)c1	52.5 mM (≈ 7250 µg/mL)	–
c1ccc(-c2ccccc2-c2ccccc2)cc1	0.00538 mM (≈ 1.24 µg/mL)	–
Clc1cccc(-c2cccc(Cl)c2)c1	0.00159 mM (≈ 0.355 µg/mL)	–
CC(Cl)(Cl)C(=O)O	3510 mM (≈ 502000 µg/mL)	–
Cc1cc(C)c(C)c(C)c1C	–	solubility: 0.105 mM (≈ 15.5 µg/mL)
Cc1nc(N(C)C)nc(OC(=O)N(C)C)c1C	11.3 mM (≈ 2700 µg/mL)	–

Compound	solubility (25 °C)	further results
CSCCC(N)C(=O)O (racemic)	331 mM (≈ 49300 µg/mL)	–
CN1CC(O)N(c2nnc(C(C)(C)C)s2)C1=O (stereo unspecified)	13.3 mM (≈ 3400 µg/mL)	–
Clc1cc(Cl)c(-c2ccccc2)c(Cl)c1	0.000978 mM (≈ 0.252 µg/mL)	–
COc1ccc(C(O)(c2cncnc2)C2CC2)cc1 (stereo unspecified)	2.54 mM (≈ 650 µg/mL)	–
CCCCCBr	0.841 mM (≈ 127 µg/mL)	–
CCn1cc(C(=O)O)c(=O)c2cnc(N3CCNCC3)nc21	1.06 mM (≈ 322 µg/mL)	–
CCCCCCCCCCCCCC(=O)O	0.00468 mM (≈ 1.07 µg/mL)	–
CCCCCCCCCCC(=O)O	–	solubility (30 °C): 0.28 mM (≈ 52.2 µg/mL)
O=C1NC(=O)C2C3C(C(O)(c4ccccc4)c4ccccn4)=CC(C3=C(c3ccccc3)c3ccccn3)C12 (stereo unspecified)	–	solubility (20 °C): 0.117 mM (≈ 60 µg/mL)
Brc1ccc(Br)cc1	0.0848 mM (≈ 20 µg/mL)	–
CC(C)(C)C(=O)OCC(=O)[C@@]1(O)CC[C@H]2[C@@H]3CCC4=CC(=O)C=C[C@]4(C)[C@H]3[C@@H](O)C[C@@]21C	0.0261 mM (≈ 11.6 µg/mL)	–
CCC(C(=O)O)C(=O)O	5390 mM (≈ 712000 µg/mL)	–
Cc1cc(=O)[nH]o1	858 mM (≈ 85000 µg/mL)	–
O=C1CSC(=S)N1	16.9 mM (≈ 2250 µg/mL)	–
c1ccc2c(c1)Cc1c-2ccc2ccccc12	0.00021 mM (≈ 0.0454 µg/mL)	–
C#CCCCC#C	17.5 mM (≈ 1610 µg/mL)	–
O=C(O)[C@@H](CO)c1ccccc1	–	solubility (23 °C): 119 mM (≈ 19800 µg/mL)
C[C@H](CCC(=O)O)[C@H]1CC[C@H]2[C@@H]3[C@@H](O)C[C@@H]4C[C@H](O)CC[C@]4(C)[C@H]3CC[C@]12C	–	solubility (20 °C): 0.108 mM (≈ 42.4 µg/mL)
O=C(O)c1cccc([N+](=O)[O-])c1C(=O)O	95.2 mM (≈ 20100 µg/mL)	–
C=CCOC(=O)c1ccccc1C(=O)OCC=C	–	solubility (20 °C): 0.739 mM (≈ 182 µg/mL)
CNC(=O)Oc1cccc(N=CN(C)C)c1	–	solubility: 4.52 mM (≈ 1000 µg/mL)
CN(C)C(=O)Nc1ccccc1	24.5 mM (≈ 4030 µg/mL)	–
Cc1cc(S(=O)(=O)c2ccccc2)ccc1NS(=O)(=O)C(F)(F)F	–	solubility (22 °C): 0.158 mM (≈ 60 µg/mL)
Clc1cccc(Cl)c1-c1c(Cl)cccc1Cl	4.08e-05 mM (≈ 0.0119 µg/mL)	–
CCC#CC(C)C	1.8 mM (≈ 173 µg/mL)	–
Clc1c(Cl)c(Cl)c(-c2ccccc2)c(Cl)c1Cl	1.23e-05 mM (≈ 0.00401 µg/mL)	–

Compound	solubility (25 °C)	further results
Cc1cccc(C)c1NC(=O)c1cc(S(N)(=O)=O)c(Cl)cc1O	0.163 mM (≈ 58 µg/mL)	–
CC/C(=C(/CC)c1ccc(O)cc1)c1ccc(O)cc1	0.0447 mM (≈ 12 µg/mL)	–
Cc1c(N)c(=O)n(-c2ccccc2)n1C	3580 mM (≈ 728000 µg/mL)	–
O=C(O)c1cc([N+](=O)[O-])cc([N+](=O)[O-])c1	6.37 mM (≈ 1350 µg/mL)	–
CCOP(=S)(NC(C)C)Oc1ccccc1C(=O)OC(C)C (stereo unspecified)	–	solubility (20 °C): 0.064 mM (≈ 22.1 µg/mL)
CC(C)(O)C(Cl)(Cl)Cl	–	solubility (20 °C): 45.1 mM (≈ 8000 µg/mL)
CC(=O)C(C)(C)C	190 mM (≈ 19000 µg/mL)	–
C=CC(=O)Oc1c(Br)cc(Cl)c2cccnc12	–	solubility (20 °C): 0.0192 mM (≈ 6 µg/mL)
CC(C)CCC(C)(C)C	0.00897 mM (≈ 1.15 µg/mL)	–
CCc1cccs1	2.6 mM (≈ 292 µg/mL)	–
Cc1nc(NS(=O)(=O)c2ccc(N)cc2)oc1C	–	solubility (20 °C): 6.27 mM (≈ 1680 µg/mL)
Clc1ccc(-c2ccccc2)c(Cl)c1	0.00515 mM (≈ 1.15 µg/mL)	–
Cc1cccc2c1Cc1ccccc1-2	0.00605 mM (≈ 1.09 µg/mL)	–
Nc1ccc(-c2ccc(N)cc2)cc1	1.75 mM (≈ 322 µg/mL)	–
Cc1c(N(C)C)c(=O)n(-c2ccccc2)n1C	–	solubility (30 °C): 235 mM (≈ 54400 µg/mL)
Ic1ccc(I)cc1	0.00424 mM (≈ 1.4 µg/mL)	–
COC(=O)C(Cl)Cc1ccc(Cl)cc1 (stereo unspecified)	–	solubility (20 °C): 0.172 mM (≈ 40 µg/mL)
NCCCCCC(=O)O	3850 mM (≈ 505000 µg/mL)	–
O=C1C[C@@H](c2ccc(O)c(O)c2)Oc2cc(O)cc(O)c21	–	solubility (20 °C): 0.243 mM (≈ 70 µg/mL)
O=C1C=C2CC3(O)COc4c(ccc(O)c4O)C3=C2C=C1O (stereo unspecified)	–	solubility (20 °C): 2 mM (≈ 600 µg/mL)
C=CCC1(CC(C)C)C(=O)NC(=O)NC1=O	7.6 mM (≈ 1700 µg/mL)	–
CCCC(C)CC (stereo unspecified)	0.0494 mM (≈ 4.95 µg/mL)	–
NC(=O)c1ccccc1O	15 mM (≈ 2060 µg/mL)	–
O=C(Oc1ccccc1)c1ccccc1O	0.7 mM (≈ 150 µg/mL)	–
